# Results: patent EP0198172A1, “Pharmaceutical preparation” (HERMES Fabrik pharmazeutischer Präparate Franz Gradinger …, priority 1985, dated 1986)
# Tested on: Patienten
# Assay: Double-blind crossover clinical study, impedance cardiography (I.C.) in six patients
# Type: in vivo, Menschen
# Text: Im folgenden werden klinische Versuche am Menschen beschrieben, die die Wirkungen der erfindungsgemäßen pharmazeutischen Zubereitung zeigen: • Tabelle 1 zeigt in schematischer Darstellung eine Doppel-Blind-Studie mit der erfindungsgemäßen pharmazeutischen Zubereitung.
# Dabei bedeutet "I.C."Impedanz Cardiographie.
# Zur Durchführung der Impedanz Cardiographie wird insbesondere verwiesen auf "Biomedical and clinical aspects for coenzyme Q, Volume 1 (1977) Volume 2 (1980), Volume 3 (1981), Volume 4 (1984), Elsevier/North-Holland Biomedical Press, Amsterdam-New York-Oxford" und auf Lee E. Baker (ebenda, Vol. 2,.Seite 289) und schließlich W.G. Kubicek, Aerospace Med. 37 (12), 1208, 1966.
# Die Wirkungen der erfindungsgemäßen pharmazeutischen Zubereitung auf das Herz-Schlag-Volumen (SV), das Herz-Zeit-Volumen (CO) und den Heather Index (HI) von sechs Patienten wurden ermittelt und in der folgenden Tabelle 2 zusammengestellt.
# Den sechs Patienten wurden gemäß Tabelle II gegeben: • CoQ10 : 3 x 33 mg = 99 mg täglich • Placebo : Oleum arachidis Vol.(eine Kapsel 0,5 ml) • CoQ10 + Vitamin E : (3 x 33 mg) + (3 x 100 mg) zusammen in 3 Kapseln täglich gelöst in Oleum arachidis • Vitamin E : 3 x 100 mg täglich (= 3 Kapseln . täglich). [formula]
# [1] = oral capsules daily, impedance cardiography, result in words
smiles,measurement,setting,value
"COC1=C(OC)C(=O)C(C/C=C(\C)CC/C=C(\C)CC/C=C(\C)CC/C=C(\C)CC/C=C(\C)CC/C=C(\C)CC/C=C(\C)CC/C=C(\C)CC/C=C(\C)CCC=C(C)C)=C(C)C1=O [CoQ10, 2.3-Dimethoxy-5-methyl-1.4-benzochinon mit einer isoprenoiden Seitenkette, mit 10 Dihydroisopren-Einheiten]",Steigerung des Herzminutenvolumens (CO),"oral capsules daily (CoQ10 3 x 33 mg; combination 3 x 33 mg + 3 x 100 mg Vitamin E), versus controls, placebo and Vitamin E alone",~20%
same,Heather Index (HI),[1],Ähnliches gilt
same,Schlagvolumen (SV),[1],Ähnliches gilt
